Columns and labels:
[1] = target: T1, Peroxisome proliferator-activated receptor gamma (Homo sapiens, UniProt P37231)
T1 sequence (P37231 whole entry): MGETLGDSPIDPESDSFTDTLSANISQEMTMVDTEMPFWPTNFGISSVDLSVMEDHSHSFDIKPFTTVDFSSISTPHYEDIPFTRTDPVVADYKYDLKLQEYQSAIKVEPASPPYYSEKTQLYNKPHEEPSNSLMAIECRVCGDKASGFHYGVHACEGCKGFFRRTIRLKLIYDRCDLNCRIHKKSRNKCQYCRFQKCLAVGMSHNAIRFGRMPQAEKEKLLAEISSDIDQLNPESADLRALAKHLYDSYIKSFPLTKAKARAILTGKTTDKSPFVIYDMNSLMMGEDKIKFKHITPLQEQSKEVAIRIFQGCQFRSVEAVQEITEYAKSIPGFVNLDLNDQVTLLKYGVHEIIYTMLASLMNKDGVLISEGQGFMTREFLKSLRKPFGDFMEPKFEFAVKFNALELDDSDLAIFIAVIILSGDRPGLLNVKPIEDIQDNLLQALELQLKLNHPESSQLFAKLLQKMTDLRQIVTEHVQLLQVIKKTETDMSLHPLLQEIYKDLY
Description: Agonist activity at human PPARgamma expressed in african green monkey CV1 cells by Gal4 transactivation assay

[2] = target: T1, Peroxisome proliferator-activated receptor gamma; remark: listed apart in the source
Description: Displacement of radiolabeled ((5-{4-[Methyl-pyridin-2yl-amino)-ethoxy]-benzyl}-thiazolidine-2,4-dione) from human PPARgamma ligand binding domain expressed in Escherichia coli

[3] = target: T2, Peroxisome proliferator-activated receptor alpha (Homo sapiens, UniProt Q07869); assay: Agonist activity at human PPARalpha expressed in african green monkey CV1 cells by Gal4 transactivation assay; assay type: functional, cell-based, CV-1
T2 sequence (Q07869 whole entry): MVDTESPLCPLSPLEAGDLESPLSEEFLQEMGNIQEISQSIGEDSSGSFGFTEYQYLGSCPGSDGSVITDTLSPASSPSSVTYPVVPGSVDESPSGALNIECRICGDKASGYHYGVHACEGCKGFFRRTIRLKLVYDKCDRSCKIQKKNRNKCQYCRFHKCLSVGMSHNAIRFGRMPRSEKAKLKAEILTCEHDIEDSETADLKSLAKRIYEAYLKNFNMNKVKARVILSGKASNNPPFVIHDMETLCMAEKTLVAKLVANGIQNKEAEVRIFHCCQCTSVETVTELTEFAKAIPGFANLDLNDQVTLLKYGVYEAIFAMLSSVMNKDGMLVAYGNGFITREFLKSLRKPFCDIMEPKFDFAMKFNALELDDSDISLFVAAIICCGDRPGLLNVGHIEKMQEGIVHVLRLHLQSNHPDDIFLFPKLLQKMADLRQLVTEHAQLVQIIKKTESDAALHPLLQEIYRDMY

[4] = target: T2, Peroxisome proliferator-activated receptor alpha; assay: Displacement of radiolabeled GW-2433 from human PPARalpha ligand binding domain expressed in Escherichia coli
[5] = target: T3, Peroxisome proliferator-activated receptor delta (Homo sapiens, UniProt Q03181); assay: Displacement of radiolabeled GW-2433 from human PPARdelta ligand binding domain expressed in Escherichia coli
T3 sequence (Q03181 whole entry): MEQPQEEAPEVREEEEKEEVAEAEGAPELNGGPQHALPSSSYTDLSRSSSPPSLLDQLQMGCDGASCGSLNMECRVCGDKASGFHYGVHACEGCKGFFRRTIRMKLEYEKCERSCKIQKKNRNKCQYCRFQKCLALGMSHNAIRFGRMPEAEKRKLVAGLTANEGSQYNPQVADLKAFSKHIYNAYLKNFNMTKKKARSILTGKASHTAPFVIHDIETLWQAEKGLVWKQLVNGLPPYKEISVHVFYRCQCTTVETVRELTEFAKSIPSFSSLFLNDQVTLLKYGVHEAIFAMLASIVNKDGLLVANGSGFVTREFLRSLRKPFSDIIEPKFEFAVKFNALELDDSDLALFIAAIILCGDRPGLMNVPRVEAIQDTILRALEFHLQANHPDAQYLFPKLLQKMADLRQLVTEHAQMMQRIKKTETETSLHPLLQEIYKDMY

[6] = target: T4, Peroxisome proliferator-activated receptor delta (Mus musculus, UniProt P35396); assay: Agonist activity at mouse PPARdelta expressed in african green monkey CV1 cells by Gal4 transactivation assay; assay type: functional, cell-based, CV-1
T4 sequence (P35396 whole entry): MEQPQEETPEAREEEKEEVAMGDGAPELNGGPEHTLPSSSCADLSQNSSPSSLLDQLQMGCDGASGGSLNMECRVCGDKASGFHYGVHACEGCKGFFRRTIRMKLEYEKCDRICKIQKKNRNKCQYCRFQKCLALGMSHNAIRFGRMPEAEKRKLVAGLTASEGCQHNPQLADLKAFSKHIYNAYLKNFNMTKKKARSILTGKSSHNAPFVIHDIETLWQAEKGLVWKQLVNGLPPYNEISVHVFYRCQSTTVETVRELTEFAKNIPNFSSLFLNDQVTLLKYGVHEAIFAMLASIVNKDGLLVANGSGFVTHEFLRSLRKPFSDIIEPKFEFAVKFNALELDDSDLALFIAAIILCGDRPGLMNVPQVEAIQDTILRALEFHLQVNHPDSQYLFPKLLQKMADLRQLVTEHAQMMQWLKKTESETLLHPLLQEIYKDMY

[7] = target: T5, Peroxisome proliferator-activated receptor alpha (Mus musculus, UniProt P23204); assay: Agonist activity at mouse PPARalpha expressed in african green monkey CV1 cells by Gal4 transactivation assay; assay type: functional, cell-based, CV-1
T5 sequence (P23204 whole entry): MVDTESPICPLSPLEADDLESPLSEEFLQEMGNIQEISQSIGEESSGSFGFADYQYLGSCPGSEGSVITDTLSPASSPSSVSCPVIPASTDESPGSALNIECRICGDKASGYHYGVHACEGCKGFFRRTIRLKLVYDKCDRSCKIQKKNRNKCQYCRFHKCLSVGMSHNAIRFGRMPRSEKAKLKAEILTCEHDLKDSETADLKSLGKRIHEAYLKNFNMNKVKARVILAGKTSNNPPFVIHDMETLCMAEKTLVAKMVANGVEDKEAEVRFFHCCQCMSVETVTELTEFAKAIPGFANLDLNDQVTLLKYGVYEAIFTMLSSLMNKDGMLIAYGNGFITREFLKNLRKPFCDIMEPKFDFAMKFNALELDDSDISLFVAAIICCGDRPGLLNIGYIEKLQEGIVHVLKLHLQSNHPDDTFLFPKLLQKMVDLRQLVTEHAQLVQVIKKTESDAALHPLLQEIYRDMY

[8] = target: T3, Peroxisome proliferator-activated receptor delta; assay: Agonist activity at human PPARdelta expressed in african green monkey CV1 cells by Gal4 transactivation assay; assay type: functional, cell-based, CV-1
[9] = target: T6, Peroxisome proliferator-activated receptor gamma (Mus musculus, UniProt P37238); assay: Agonist activity at mouse PPARgamma expressed in african green monkey CV1 cells by Gal4 transactivation assay; assay type: functional, cell-based, CV-1
T6 sequence (P37238 whole entry): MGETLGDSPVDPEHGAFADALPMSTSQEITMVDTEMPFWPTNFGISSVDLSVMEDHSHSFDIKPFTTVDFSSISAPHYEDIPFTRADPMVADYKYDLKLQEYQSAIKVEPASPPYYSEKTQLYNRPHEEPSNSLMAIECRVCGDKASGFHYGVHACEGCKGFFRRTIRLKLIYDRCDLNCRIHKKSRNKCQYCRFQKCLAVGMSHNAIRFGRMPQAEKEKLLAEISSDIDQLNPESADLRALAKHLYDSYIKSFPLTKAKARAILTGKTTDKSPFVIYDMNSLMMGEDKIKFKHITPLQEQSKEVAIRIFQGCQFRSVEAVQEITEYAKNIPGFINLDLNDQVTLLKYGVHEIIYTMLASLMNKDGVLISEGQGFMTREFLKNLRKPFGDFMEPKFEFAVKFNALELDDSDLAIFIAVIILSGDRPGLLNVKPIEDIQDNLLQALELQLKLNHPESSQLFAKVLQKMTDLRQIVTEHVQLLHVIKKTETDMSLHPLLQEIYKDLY

Rattus norvegicus [10] = assay: Antidiabetic activity in Zucker fa/fa rat assessed as reduction in hematocrit level in at 10 mg/kg, po twice a day for 5 days; assay type: functional; design: scale not given: the % may be the effect or the level left
[11] = AUC in Zucker fa/fa rat at 5 mg/kg, po; assay type: ADME, organism-based; design: dose 5 mg/kg, route oral; details: plasma
Rattus norvegicus [12] = assay: Antidiabetic activity in Zucker fa/fa rat assessed as reduction in triglyceride level in at 10 mg/kg, po twice a day for 5 days; assay type: functional; design: scale not given: the % may be the effect or the level left
Rattus norvegicus [13] = assay: Antidiabetic activity in Zucker fa/fa rat assessed as reduction in plasma glucose level in at 10 mg/kg, po twice a day for 5 days; assay type: functional; design: scale not given: the % may be the effect or the level left
[14] = target: T7, Peroxisome proliferator-activated receptor alpha (Homo sapiens) (UniProt Q07869); assay: Agonist activity at human PPARalpha expressed in african green monkey CV1 cells by Gal4 transactivation assay relative to SW516; assay type: functional, cell-based; details: CV-1
T7 sequence (whole entry): T2 sequence (Q07869 whole entry)

| SMILES | EC50 [1] | IC50 [2] | EC50 [3] | IC50 [4] | IC50 [5] | EC50 [6] | EC50 [7] | EC50 [8] | EC50 [9] | Activity (Rattus norvegicus [10]) | AUC [11] | Activity (Rattus norvegicus [12]) | Activity (Rattus norvegicus [13]) | Activity [14] |
| --- | --- | --- | --- | --- | --- | --- | --- | --- | --- | --- | --- | --- | --- | --- |
| CCCc1cc2cc(NC(=O)C(CC)c3ccccc3)ccc2n1Cc1ccc(-c2ccccc2C(=O)O)cc1 (stereo not drawn) | 2 nM | 260 nM | > 10000 nM | > 10000 nM | > 10000 nM |  |  |  |  |  |  |  |  |  |
| CCCc1nc2ccc(C(=O)NC(CC)c3ccccc3)cc2n1Cc1ccc(-c2ccccc2C(=O)O)cc1 (stereo not drawn) | 900 nM |  | > 10000 nM |  |  | > 10000 nM | > 10000 nM | > 10000 nM | 1690 nM |  |  |  |  |  |
| CCC(NC(=O)c1ccc2cc(C)n(Cc3ccc(-c4ccccc4C(=O)O)cc3)c2c1)c1ccccc1 (stereo not drawn) | 163 nM | 321 nM | > 10000 nM | > 10000 nM | > 10000 nM |  |  | > 10000 nM |  |  |  |  |  |  |
| CN(CCOc1ccc(C[C@H](Nc2ccccc2C(=O)c2ccccc2)C(=O)O)cc1)c1ccccn1 |  |  |  |  |  |  |  |  |  | 15% | 16500 ng·h/mL | 54% | 21% |  |
| CCCc1c(SC)c2cc(NC(=O)C(CC)c3ccccc3)ccc2n1Cc1ccc(-c2ccccc2C(=O)O)cc1 (stereo not drawn) | 3 nM | 36 nM | > 10000 nM | > 10000 nM | > 10000 nM |  |  | > 10000 nM |  |  |  |  |  |  |
| CCC(C(=O)Nc1ccc2c(c1)c(C)c(C)n2Cc1ccc(-c2ccccc2C(=O)O)cc1)c1ccccc1 (stereo not drawn) | 338 nM | 574 nM | 6140 nM | > 10000 nM | > 10000 nM |  |  |  |  |  |  |  |  | 45% |
